Drawing on US7563903B2, “Acylaminothiazole derivatives, their preparation and their therapeutic use” (Sanofi-Aventis, priority 2003, dated 2009), this text covers EC50 and melting point for 2 molecules.

One data set concerns the target T1, gamma-secretase (Homo sapiens, UniProt P49768, M146L).
T1 construct: expressed in transfected cells; host or cells: CHO-K1 (clone 30-12)
As to the kind of experiment: β-amyloid cellular trial: inhibition of β-amyloid peptide (β-A4) production, ELISA. The data set is classed as cell-based. Conditions: CHO-K1 line coexpressing the CT100 of APP and PSI M146L clone 30-12, 24-25 h incubation, ELISA of supernatants, read-out: EC50 (50% effective concentration). An excerpt:
For the β-amyloid cellular trial, the CHO-K1 line coexpressing the CT100 of APP and PSI M146L clone 30-12 is used. The line targets the inhibition of gamma-secretase. Presenilin is linked to the gamma-secretase activity (Wolfe M S, Haass C., The Role of presenilins in gamma-secretase activity, J. Biol. Chem., Feb. 23, 2001 276(8), 5413-6) and its coexpression with the amyloid protein or its N-terminal fragment causes an increase in the secretion of the A1-42 peptide (β-A4) thus generating a pharmacological tool which makes it possible to evaluate inhibition by the compounds of formula (I) of the production of the β-A4 peptide. The inoculation of the 96-well culture plates is carried out at the rate of 1×10^5 cells per well in 150 μl of incubation medium. […]
The quantity of bound peptide is detected in an indirect manner in the presence of a competitor corresponding to the truncated peptide, peptide 1-28 coupled to biotin which is then detected with streptavidin coupled to alkaline phosphatase. The substrate, p-Nitrophenyl Phosphate (pNPP FAST p-Nitrophenyl Phosphate, Sigma N2770), gives a yellow soluble reaction product which can be read at 405 nm. […] After incubating for 30 minutes at room temperature, the reaction is stopped by the addition of 100 μl per well of 0.1M EDTA and the reading is carried out at 405 nm.

Turning to `CCC[C@H](NC(=O)[C@@H](O)C(C)(C)C)C(=O)Nc1ncc(-c2ccccc2COc2ccc(Cl)c(Cl)c2)s1` [compound 50, (2S)—N-(5-{2-[(3,4-dichlorophenoxy)methyl]phenyl}-1,3-thiazol-2-yl)-2-{[(2S)-2-hydroxy-3,3-dimethylbutanoyl]amino}pentanamide], on gamma-secretase, the EC50 was 295 nM.

In turn, `CCC[C@H](NC(=O)[C@@H](O)C(C)(C)C)C(=O)Nc1ncc(-c2ccccc2COc2ccc(C)cc2C)s1` [compound 32, (2S)—N-(5-{2-[(2,4-dimethylphenoxy)methyl]phenyl}-1,3-thiazol-2-yl)-2-{[(2S)-2-hydroxy-3,3-dimethylbutanoyl]amino}pentanamide] yielded a melting point of 86 °C.

The term melting point denotes the temperature of the solid-liquid transition.
